# Assay results: US10183015B2, “Heterocyclic compounds and methods of use” (Medivation Technologies LLC, priority 2015, dated 2019)
# “And” between values parts separate entries of the source, which are not always exact repeats. Equal entries are not always repeated.
# Key:
# SCAP = experiment: DIN mouse model: hepatic SCAP gene expression; type: in vivo; design: key to 2^DDct: expression relative to vehicle group, normalized to 18S; conditions: 20 mg/kg group; for 18S: Gene Expression: SCAP table, 18S reference; for 2^DDct / DDct / Dct / SCAP: Gene Expression: SCAP
# Experimental: Gene expression analysis. Hepatic expression levels of genes involved in lipid metabolism (FAS, SREBP1, ACC1, SCD1), cholesterol metabolism (HMG-CoAR, LDLR), SREBP proteolysis (SCAP, INSIG1), ER stress (PERK), oxidative stress (NRF2), inflammation (MCP-1), and fibrosis (collagen 1α1) were quantified by RTqPCR. Expression level was normalized to 18S gene expression and relative expression to vehicle group was calculated with the […] method.
# Male C57Bl/6J mice (8 weeks old) were housed in enriched ventilated cages (31×12.5×12.7 cm) throughout the experimental phase. Animals' cages litters were changed at least once a week. Animal were housed 5 per cage on inverted 12-hour light cycle (at 09:00 am lights off), 22±2° C. and 55±10% relative humidity. The acclimation period was 20 days. During the acclimation period, all mice were fed a standard diet (RM1 (E) 801492, SDS) and tap water ad libitum. After the acclimation period, mice were fed with the DIN diet (60% fat, cholesterol enriched) and fructose-enriched tap water ad libitum until the end of the experiment.
# At 6 weeks of diet, mice were 4-hour fasted (09:00 am to 1:00 pm) and blood (150 μl/EDTA) was collected at 01:00 pm by retro-orbital bleeding under isoflurane anesthesia. Mice were then allocated in 2 homogenous groups (n=12/group) according to their plasma levels of ALT (average levels: 685U/L), AST (average levels: 627U/L) and HOMA-IR index (average value: 4.7), into 2 homogenous groups (see values at day 0 in Tables 15A and 15B ALT/AST and Tables 16A and 16B for HOMA-IR). Mice were then treated once daily by oral gavage with vehicle (Group 1) or Compound #37 at 20 mg/kg (Group 2) for 70 days.
# Hepatic expression levels of genes involved in lipid (FAS, SREBP1, ACC1, SCD1), cholesterol metabolism (HMG-CoAR, LDLR), in SREBP proteolysis (SCAP, INSIG1), in ER stress (PERK), oxidative stress (NRF2), and inflammation (MCP-1) were not changed. However, expression of collagen 1α1, involved in liver fibrosis, was reduced by 66% in mice treated with Compound #37 (p<0.05 vs. vehicle).
# ob/ob mice = experiment: ob/ob mice: plasma triglycerides, non-esterified fatty acids, total cholesterol, insulin; type: in vivo, mouse; conditions: 8 weeks
# Experimental: Groups of mice were either untreated (group 1) or treated for 8 weeks with vehicle (group 2), or with Compound #37 at 5 mg/kg (group 3), 10 mg/kg (group 4), or 20 mg/kg (group 5). Treatment was daily by oral gavage in vehicle (20% HPβCD). Values are presented as mean±standard error of the mean (sem). A t test was performed to compare the untreated group and the vehicle group. Then Compound #37-treated groups were compared to the vehicle-treated group with a 1-way ANOVA+Dunnett's post-test. […] For each test, a p<0.05 was considered significant. Of note, animal #39, group 1 was excluded from the statistical analysis, due to low values for all parameters measured. Some other values were considered as out-liners and excluded from the statistical analysis when the value was far below the mean minus 2 SD. Excluded values are marked with an asterisk in Tables 21-23.
# [1] = Short-term Paigen-diet NASH mouse model: body weight, food intake, mortality; type: in vivo
# Excerpt: Results. […] Mice were maintained on specific diet and were sacrificed after 9 days of diet.
# [2] = 5 mg/kg daily oral gavage, group mean
# [3] = 5 mg/kg daily oral gavage, individual animal values, 5 mg/kg
# [4] = 10 mg/kg daily oral gavage, group mean
# [5] = 10 mg/kg daily oral gavage, individual animal values, 10 mg/kg
# [6] = 20 mg/kg daily oral gavage, group mean
# [7] = 20 mg/kg daily oral gavage, individual animal values, 20 mg/kg
smiles,measurement,setting,value
"CC(C)Cc1cc(-c2nc(-c3ccc(NS(=O)(=O)C(F)(F)F)cc3Cl)cs2)ccn1 [Compound 37, N-(3-chloro-4-(2-(2-isobutylpyridin-4-yl)thiazol-4-yl)phenyl)-1,1,1-trifluoromethanesulfonamide]",18S,"SCAP; individual animal, 20 mg/kg",12.55 (2×) and 12.84 and 12.43 and 12.35 (2×) and 12.59 and 11.73 and 12.51 and 11.5 and 11.55
same,18S,"SCAP; mean, n 11",12.3
same,2^DDct,"SCAP; individual animal, 20 mg/kg",1.37 and 1.72 (2×) and 0.65 and 0.71 and 0.91 and 1.46 and 1.39 and 0.64 and 0.59 and 1.60
same,DDct,"SCAP; individual animal, 20 mg/kg",−0.45 and −0.78 (2×) and 0.63 and 0.49 and 0.13 and −0.54 and −0.47 and 0.65 and 0.77 and −0.68
same,Dct,"SCAP; individual animal, 20 mg/kg",11.61 and 11.28 (2×) and 12.69 and 12.55 and 12.19 and 11.52 and 11.59 and 12.71 and 12.83 and 11.38
same,SCAP,"SCAP; individual animal, 20 mg/kg",24.16 and 23.83 and 25.53 and 24.98 and 24.54 and 24.11 and 23.32 and 23.79 and 24.21 and 24.38 and 23.73
same,2^DDct,"SCAP; mean, n 11",1.16
same,DDct,"SCAP; mean, n 11",−0.10
same,Dct,"SCAP; mean, n 11",12.0
same,SCAP,"SCAP; mean, n 11",24.2
same,plasma insulin,ob/ob mice; [2],274.1 μU/mL
same,plasma non-esterified fatty acids,ob/ob mice; [2],0.7 mM
same,plasma total cholesterol,ob/ob mice; [2],1.8 g/L
same,plasma triglycerides,ob/ob mice; [2],1.6 g/L
same,plasma insulin,"ob/ob mice; 5 mg/kg daily oral gavage, individual animal values (* = excluded from statistical analysis), 5 mg/kg",198.7 μU/mL and 262.7 μU/mL and 181.1 μU/mL and 250.5 μU/mL and 118.7 μU/mL and 394.6 μU/mL and 24.6* μU/mL and 374.6 μU/mL and 512.6 μU/mL and 173.1 μU/mL
same,plasma non-esterified fatty acids,ob/ob mice; [3],1.028 mM and 0.77 mM and 0.616 mM and 0.552 mM and 0.68 mM (2×) and 1.092 mM and 0.783 mM and 0.655 mM and 0.539 mM
same,plasma total cholesterol,ob/ob mice; [3],1.587 g/L and 1.903 g/L and 1.916 g/L and 1.853 g/L and 2.017 g/L and 1.537 g/L and 2.08 g/L and 1.625 g/L and 1.347 g/L and 1.638 g/L
same,plasma triglycerides,ob/ob mice; [3],1.283 g/L and 1.152 g/L and 1.038 g/L and 1.397 g/L (2×) and 1.593 g/L and 1.201 g/L and 1.609 g/L and 2.408 g/L and 2.504 g/L
same,plasma insulin,ob/ob mice; [4],357.3 μU/mL
same,plasma non-esterified fatty acids,ob/ob mice; [4],0.7 mM
same,plasma total cholesterol,ob/ob mice; [4],1.7 g/L
same,plasma triglycerides,ob/ob mice; [4],1.3 g/L
same,plasma insulin,ob/ob mice; [5],123.8 μU/mL and 457.7 μU/mL and 81.9 μU/mL and 949.0 μU/mL and 153.3 μU/mL and 62.6 μU/mL and 508.2 μU/mL and 904.4 μU/mL and 194.4 μU/mL and 137.5 μU/mL
same,plasma non-esterified fatty acids,ob/ob mice; [5],1.009 mM and 0.474 mM and 0.828 mM and 0.7 mM and 0.564 mM and 0.951 mM and 0.738 mM and 0.661 mM and 0.809 mM and 0.307 mM
same,plasma total cholesterol,ob/ob mice; [5],1.587 g/L and 1.865 g/L (2×) and 1.891 g/L (2×) and 1.827 g/L (2×) and 1.234 g/L and 1.651 g/L and 1.183 g/L
same,plasma triglycerides,ob/ob mice; [5],0.94 g/L and 1.12 g/L and 0.875 g/L and 1.218 g/L and 1.528 g/L and 1.299 g/L and 1.968 g/L and 1.381 g/L and 1.593 g/L and 0.777 g/L
same,plasma insulin,ob/ob mice; [6],444.1 μU/mL
same,plasma non-esterified fatty acids,ob/ob mice; [6],0.5 mM
same,plasma total cholesterol,ob/ob mice; [6],1.5 g/L
same,plasma triglycerides,ob/ob mice; [6],1.5 g/L
same,plasma insulin,ob/ob mice; [7],447.3 μU/mL and 10.5 μU/mL and 730.1 μU/mL and 505.0 μU/mL and 254.3 μU/mL and 881.0 μU/mL and 810.7 μU/mL and 483.7 μU/mL and 62.6 μU/mL and 256.2 μU/mL
same,plasma non-esterified fatty acids,ob/ob mice; [7],0.429 mM and 0.642 mM and 0.494 mM and 0.481 mM and 0.423 mM (2×) and 0.513 mM and 0.397 mM and 0.687 mM and 0.597 mM
same,plasma total cholesterol,ob/ob mice; [7],1.234 g/L and 0.893 g/L and 1.499 g/L and 1.714 g/L and 1.663 g/L (2×) and 1.625 g/L and 1.587 g/L and 1.36 g/L and 1.272 g/L
same,plasma triglycerides,ob/ob mice; [7],0.875 g/L and 1.886 g/L and 1.511 g/L (2×) and 1.642 g/L and 1.854 g/L and 1.283 g/L and 1.308 g/L and 1.381 g/L and 1.968 g/L
same,differences in weight vs vehicle control at end of 3-week dosing period,"[1]; 5 mg/kg/day and 20 mg/kg/day, surviving animals",no differences in weight
same,mice died,"[1]; 20 mg/kg/day, group of 10 mice (1 on day 7, 2 on day 9, 1 on day 11)",4 mice
same,death of additional mice by day 9,"[1]; 40 mg/kg/day, group of 10 mice",3 mice
same,death of mice by day 7,"[1]; 40 mg/kg/day, group of 10 mice",3 mice
same,mean weight loss,"[1]; 40 mg/kg/day, over 4 days of treatment",> 20%
same,mice died,"[1]; mouse, in vivo",No mice died
